# According to patent publication US9073907B2, “Thiazoles derivatives and their use as positive allosteric modulators of metabotropic glutamate receptors” (Addex Pharma S.A., priority 2009, dated 2015):
row,melting point [°C],SMILES
1,230 to 231,"c1ccc(Nc2nc(-c3cn[nH]c3)c(N3CCOCC3)s2)nc1 [Compound 1-2, 5-Morpholino-4-(1H-pyrazol-4-yl)-N-(pyridin-2-yl)thiazol-2-amine]"
2,238,"c1ccc(Nc2nc(-c3cn[nH]c3)c(N3CCCCC3)s2)nc1 [Compound 1-4, 5-(Piperidin-1-yl)-4-(1H-pyrazol-4-yl)-N-(pyridin-2-yl)thiazol-2-amine]"
3,232 to 233,"Cc1sc(Nc2ccccn2)nc1-c1cnn(S(=O)(=O)c2ccc(Cl)cc2)c1 [Compound 1-9, 4-(1-(4-Chlorophenylsulfonyl)-1H-pyrazol-4-yl)-5-methyl-N-(pyridin-2-yl)thiazol-2-amine]"
4,204,"Cc1cccc(Nc2nc(-c3cn[nH]c3)c(F)s2)n1 [Compound 1-11, 5-Fluoro-N-(6-methylpyridin-2-yl)-4-(1H-pyrazol-4-yl)thiazol-2-amine]"
5,232,"CN(C)c1sc(Nc2ccccn2)nc1-c1cn[nH]c1 [Compound 1-12, N^5,N^5-Dimethyl-4-(1H-pyrazol-4-yl)-N^2-(pyridin-2-yl)thiazole-2,5-diamine]"
6,239,"Fc1sc(Nc2cccc(Cl)n2)nc1-c1cn[nH]c1 [Compound 1-13, N-(6-Chloropyridin-2-yl)-5-fluoro-4-(1H-pyrazol-4-yl)thiazol-2-amine]"
7,> 260,"Cc1sc(Nc2cccc(I)n2)nc1-c1cn[nH]c1 [Compound 1-14, N-(6-Iodopyridin-2-yl)-5-methyl-4-(1H-pyrazol-4-yl)thiazol-2-amine]"
8,243 to 245,"Cc1sc(Nc2ncccc2I)nc1-c1cn[nH]c1 [Compound 1-15, N-(3-Iodopyridin-2-yl)-5-methyl-4-(1H-pyrazol-4-yl)thiazol-2-amine]"
9,283,"Cc1sc(Nc2cc(F)ccn2)nc1-c1cn[nH]c1 [Compound 1-19, N-(4-Fluoropyridin-2-yl)-5-methyl-4-(1H-pyrazol-4-yl)thiazol-2-amine]"
10,323,"Cc1ccc(F)c(Nc2nc(-c3cn[nH]c3)c(C)s2)n1 [Compound 1-23, N-(3-Fluoro-6-methylpyridin-2-yl)-5-methyl-4-(1H-pyrazol-4-yl)thiazol-2-amine]"
11,229,"COc1ccc(Nc2nc(-c3cn[nH]c3)c(C)s2)nc1 [Compound 1-24, N-(5-M ethoxypyridin-2-yl)-5-methyl-4-(1H-pyrazol-4-yl)thiazol-2-amine]"
12,279,"Fc1sc(Nc2cnccn2)nc1-c1cn[nH]c1 [Compound 1-25, 5-Fluoro-N-(pyrazin-2-yl)-4-(1H-pyrazol-4-yl)thiazol-2-amine]"
13,239,"Fc1ccc(Nc2nc(-c3cn[nH]c3)c(F)s2)nc1 [Compound 1-28, 5-Fluoro-N-(5-fluoropyridin-2-yl)-4-(1H-pyrazol-4-yl)thiazol-2-amine]"
14,209,"Cc1cccc(Nc2nc(-c3cnn(C(N)=O)c3)c(F)s2)n1 [Compound 1-30, 4-(5-Fluoro-2-(6-methylpyridin-2-ylamino)thiazol-4-yl)-1H-pyrazole-1-carboxamide]"
15,307 to 310,"Cc1ccnc(Nc2nc(-c3cn[nH]c3)cs2)n1 [Compound 1-31, N-(4-Methylpyrimidin-2-yl)-4-(1H-pyrazol-4-yl)thiazol-2-amine]"
16,255,"Cc1ccnc(Nc2nc(-c3cn[nH]c3)c(C)s2)n1 [Compound 1-33, 5-Methyl-N-(4-methylpyrimidin-2-yl)-4-(1H-pyrazol-4-yl)thiazol-2-amine]"
17,> 410,"Cc1cnc(Nc2nc(-c3cn[nH]c3)c(C)s2)nc1 [Compound 1-34, 5-Methyl-N-(5-methylpyrimidin-2-yl)-4-(1H-pyrazol-4-yl)thiazol-2-amine]"
18,181 to 185,"Cc1sc(Nc2ccccn2)nc1-c1cnn(C(=O)N(C)C)c1 [Compound 1-36, N,N-Dimethyl-4-(5-methyl-2-(pyridin-2-ylamino)thiazol-4-yl)-1H-pyrazole-1-carboxamide]"
19,229 to 231,"c1ccc(-c2n[nH]cc2-c2csc(Nc3ccccn3)n2)cc1 [Compound 1-37, 4-(3-Phenyl-1H-pyrazol-4-yl)-N-(pyridin-2-yl)thiazol-2-amine]"

row,melting point [°C],SMILES
1,190,"COCc1n[nH]cc1-c1csc(Nc2ccccn2)n1 [Compound 1-40, 4-(3-(Methoxymethyl)-1H-pyrazol-4-yl)-N-(pyridin-2-yl)thiazol-2-amine]"
2,236 to 239,"Cc1nc(Nc2nc(-c3cn[nH]c3)cs2)cs1 [Compound 1-41, N-(2-Methylthiazol-4-yl)-4-(1H-pyrazol-4-yl)thiazol-2-amine]"
3,277 to 280,"c1csc(Nc2nc(-c3cn[nH]c3)cs2)n1 [Compound 1-42, 4-(1H-Pyrazol-4-yl)-N-(thiazol-2-yl)thiazol-2-amine]"
4,270 to 280,"Cc1sc(Nc2cccc(CF)n2)nc1-c1cn[nH]c1 [Compound 1-43, N-(6-(Fluoromethyl)pyridin-2-yl)-5-methyl-4-(1H-pyrazol-4-yl)thiazol-2-amine]"
5,269 to 271,"Cc1sc(Nc2cccc(C(F)F)n2)nc1-c1cn[nH]c1 [Compound 1-44, N-(6-(Difluoromethyl)pyridin-2-yl)-5-methyl-4-(1H-pyrazol-4-yl)thiazol-2-amine]"
6,310 to 313,"Clc1sc(Nc2ncccn2)nc1-c1cn[nH]c1 [Compound 1-45, 5-Chloro-4-(1H-pyrazol-4-yl)-N-(pyrimidin-2-yl)thiazol-2-amine]"
7,223 to 225,"CCc1ccnc(Nc2nc(-c3cn[nH]c3)c(C)s2)n1 [Compound 1-46, N-(4-Ethylpyrimidin-2-yl)-5-methyl-4-(1H-pyrazol-4-yl)thiazol-2-amine]"
8,243,"Cc1ccnc(Nc2nc(-c3cn[nH]c3)c(Cl)s2)n1 [Compound 1-49, 5-Chloro-N-(4-methylpyrimidin-2-yl)-4-(1H-pyrazol-4-yl)thiazol-2-amine]"
9,196 to 204,"CN1CCC(Nc2nc(-c3cn[nH]c3)cs2)C1=O (centres unmarked) [Compound 1-50, 3-(4-(1H-Pyrazol-4-yl)thiazol-2-ylamino)-1-methylpyrrolidin-2-one]"
10,249 to 252,"Cc1sc(Nc2nccc(C(C)C)n2)nc1-c1cn[nH]c1 [Compound 1-52, N-(4-Isopropylpyrimidin-2-yl)-5-methyl-4-(1H-pyrazol-4-yl)thiazol-2-amine]"
11,305 to 310,"CC(=O)c1[nH]ncc1-c1csc(Nc2nccc(C)n2)n1 [Compound 1-54, 1-(4-(2-(4-Methylpyrimidin-2-ylamino)thiazol-4-yl)-1H-pyrazol-5-yl)ethanone]"
12,256,"Fc1cnc(Nc2nc(-c3cn[nH]c3)cs2)nc1 [Compound 1-55, N-(5-Fluoropyrimidin-2-yl)-4-(1H-pyrazol-4-yl)thiazol-2-amine]"
13,256,"Cc1ccnc(Nc2nc(-c3c[nH]nc3N3CCCCC3)cs2)n1 [Compound 1-57, N-(4-Methylpyrimidin-2-yl)-4-(3-(piperidin-1-yl)-1H-pyrazol-4-yl)thiazol-2-amine]"
14,311 to 312,"c1cnc(Nc2nc(-c3cn[nH]c3)cs2)nc1 [Compound 1-59, 4-(1H-Pyrazol-4-yl)-N-(pyrimidin-2-yl)thiazol-2-amine]"
15,260,"Cc1ccnc(Nc2nc(-c3c[nH]nc3N3CCOCC3)cs2)n1 [Compound 1-60, N-(4-Methylpyrimidin-2-yl)-4-(3-morpholino-1H-pyrazol-4-yl)thiazol-2-amine]"
16,228 to 231,"Cc1sc(Nc2nccc(C3CC3)n2)nc1-c1cn[nH]c1 [Compound 1-62, N-(4-Cyclopropylpyrimidin-2-yl)-5-methyl-4-(1H-pyrazol-4-yl)thiazol-2-amine]"
17,226 to 227,"Cc1sc(Nc2ccccn2)nc1-c1cnn(C(=O)c2ccccn2)c1 [Compound 1-63, (4-(5-Methyl-2-(pyridin-2-ylamino)thiazol-4-yl)-1H-pyrazol-1-yl)(pyridin-2-yl)methanone]"
18,244,"O=C(c1[nH]ncc1-c1csc(Nc2ncccn2)n1)C1CC1 [Compound 1-66, Cyclopropyl(4-(2-(pyrimidin-2-ylamino)thiazol-4-yl)-1H-pyrazol-5-yl)methanone]"
19,287,"CC(=O)c1[nH]ncc1-c1csc(Nc2ncccn2)n1 [Compound 1-67, 1-(4-(2-(Pyrimidin-2-ylamino)thiazol-4-yl)-1H-pyrazol-5-yl)ethanone]"
